Assay results from patent US4775675A, “Thiazolidinecarboxylic acid derivatives and treatment of liver diseases therewith” (Biogal Gyogyszergyar, priority 1985, dated 1988).
Counter-ions that a name gives are not always drawn.

Key:
[1] = acute toxicity investigation (LD50); details: mouse, in vivo, mice
Procedure: The compounds prepared were subjected to acute toxicity investigations. For this purpose, the compounds under test were dissolved in an aqueous sodium carbonate solution and administered intraperitoneally (i.p.) or intravenously (i.v.) to the animals (40 days old CFLP female mice).
Some characteristic LD50 values of the compounds of the invention are as follows: […]

CFY male rats [2] = assay: liver protecting effect: carbon tetrachloride intoxication followed by treatment with the compounds under test; type: in vivo, rat (CFY male); details: CCl4 1.5 g/kg orally, compound 100 mg/kg i.p. after 6 hours; for TG (triglyceride content of the liver): control 40 ± 8, CCl4 alone 86 ± 17; for SGOT activity: control 81.7 ± 16, CCl4 alone 269.0 ± 14
Procedure: (§1) In order to investigate the liver protecting effect, the compounds were tested at CFY male rats with 200 to 240 g of body-weight after a starvation for 18 hours.
(§2) An experimental liver damage was elicited by using carbon tetrachloride, allyl alcohol or galactosamine. The activity of the serum glutamate-oxalacetate-transaminase (SGOT), the triglyceride (TG) content of the liver as well as the histological picture of the liver were studied.
(§3) Liver damaging agents (1.5 g/kg of body-weight of carbon tetrachloride orally; 0.75 g/kg of body-weight of galactosamine intraperitoneally) were administered to the starved animals, whereupon the animals received the compound under test in a dose of 100 mg/kg of body-weight intraperitoneally after 6 hours.
(a) The results of the carbon tetrachloride intoxication followed by treatment with the compounds under test are as follows: […]

CFY male rats [3] = assay: liver protecting effect: allyl alcohol intoxication followed by treatment with the compounds under test; type: in vivo, rat (CFY male); details: compound 100 mg/kg of body-weight, after 24 hours, before 1.81±0.43, allyl alcohol 4.16±1.63
Procedure: as §1, §2, §3
(b) The results of the allyl alcohol intoxication followed by treatment with the compounds under test are as follows:
After 24 hours, the animals were killed and the activity of the serum glutamate-pyruvate-transaminase (SGPT) was determined. After a treatment with allyl alcohol, the SGPT level was increased from a value of 1.81±0.43 μmoles/ml.h. to 4.16±1.63 μmoles/ml. h. This increase was diminished to 2.84±0.97 μmoles/ml.h. by a treatment with a 100 mg/kg of body-weight dose of the compound described in Example 1.

CFY male rats [4] = assay: liver protecting effect: galactosamine damage followed by treatment with the compounds under test (histology); type: in vivo, rat (CFY male); details: galactosamine 0.75 g/kg i.p., compound i.p. 6 hours later

| Structure (SMILES) | TG (triglyceride content of the liver) (CFY male rats [2]) [µg/mg protein] | SGOT activity (CFY male rats [2]) [unit/liter] | also measured |
| --- | --- | --- | --- |
| CC1(C)SC(c2ccc([N+](=O)[O-])o2)N[C@H]1C(=O)O (stereo partly drawn) [Example 1, 5,5-Dimethyl-2-(5-nitro-2-furyl)-thiazolidine-4(S)-carboxylic acid] | 51 ± 15 | 224.0 ± 14 | LD50 ([1]; iv): 2190 mg/kg; SGPT level (activity of the serum glutamate-pyruvate-transaminase) (CFY male rats [3]): 2.84 ± 0.97 µmol/mL/h; number of focally appearing parenchymal necroses (CFY male rats [4]): diminished; severity of the alterations characteristic of the galactosamine hepatitis (CFY male rats [4]): diminished |
| CC1(C)SC(c2ccco2)N[C@H]1C(=O)O (stereo partly drawn) [Example 2, 5,5-Dimethyl-2-(2-furyl)-thiazolidine-4(S)-carboxylic acid] | 84 ± 6 | 229.0 ± 14 | number of focally appearing parenchymal necroses (CFY male rats [4]): diminished; severity of the alterations characteristic of the galactosamine hepatitis (CFY male rats [4]): diminished |
| Cn1cccc1C1N[C@@H](C(=O)O)C(C)(C)S1 (stereo partly drawn) [Example 4, 5,5-Dimethyl-2-(N-methyl-2-pyrrolyl)thiazolidine-4(S)-carboxylic acid] | 114 ± 24 | 241.0 ± 21 | – |
| CC1(C)SC(c2cccnc2)N[C@H]1C(=O)O (stereo partly drawn) [Example 5, 5,5-Dimethyl-2-(3-pyridyl)-thiazolidine-4(S)-carboxylic acid] | 61 ± 14 | 243.0 ± 21 | – |
| CC1(C)SC(c2ccncc2)N[C@H]1C(=O)O (stereo partly drawn) [Example 6, 5,5-Dimethyl-2-(4-pyridyl)-thiazolidine-4(S)-carboxylic acid] | 88 ± 20 | 250.0 ± 13 | – |
| CC1(C)SC(c2cc3ccccc3o2)N[C@H]1C(=O)O (stereo partly drawn) [Example 7, 2-(2-Benzofuryl)-5,5-dimethylthiazolidine-4(S)-carboxylic acid] | 61 ± 13 | 224.0 ± 14 | – |
| CC1(C)SC(c2ccc3c(c2)CCC3)N[C@H]1C(=O)O (stereo partly drawn) [Example 8, 5,5-Dimethyl-2-(5-indanyl)-thiazolidine-4(S)-carboxylic acid] | 76 ± 10 | 234.0 ± 23 | – |
| CC1(C)SC(c2cccc([N+](=O)[O-])c2)N[C@H]1C(=O)O (stereo partly drawn) [Example 9, 5,5-Dimethyl-2-(3-nitrophenyl)-thiazolidine-4(S)-carboxylic acid magnesium salt] | 83 ± 19 | 232.0 ± 34 | – |
| CC1(C)SC(c2ccc(F)cc2)N[C@H]1C(=O)[O-].[K+] (stereo partly drawn) [Example 10, 5,5-Dimethyl-2-(4-fluorophenyl)-thiazolidine-4(S)-carboxylic acid and potassium salt] | 81 ± 11 | 227.0 ± 40 | – |
| CSc1ccc(C2N[C@@H](C(=O)O)C(C)(C)S2)cc1 (stereo partly drawn) [Example 11, 5,5-Dimethyl-2-(4-methylmercaptophenyl)-thiazolidine-4(S)-carboxylic acid] | 70 ± 14 | 235.0 ± 19 | – |
| CC1(C)SC(CO)N[C@H]1C(=O)O (stereo partly drawn) [Example 14, 5,5-Dimethyl-2-hydroxymethylthiazolidine-4(S)-carboxylic acid] | – | – | LD50 ([1]; ip): 5000 mg/kg |
| CC(=O)N1[C@@H](c2ccc(Cl)cc2)SC(C)(C)[C@@H]1C(=O)O [Example 22, 3-Acetyl-2(R)-(4-chlorophenyl)-5,5-dimethylthiazolidine-4(S)-carboxylic acid] | – | – | LD50 ([1]; ip): 550 mg/kg |
| CC(=O)N1[C@@H](C(=O)O)C(C)(C)S[C@H]1c1ccccc1 [Example 27, 3-Acetyl-5,5-dimethyl-2(S)-phenylthiazolidine-4(S)-carboxylic acid] | – | – | LD50 ([1]; ip): 1500 mg/kg |
| CC(=O)N1[C@@H](C(=O)O)C(C)(C)S[C@H]1c1ccc([N+](=O)[O-])o1 [Example 30, 3-Acetyl-5,5-dimethyl-2(S)-(5-nitro-2-furyl)-thiazolidine-4(S)-carboxylic acid] | – | – | LD50 ([1]; ip): 2500 mg/kg |
| Oc1cc(O)c2c(c1)O[C@H](c1ccc(O)c(O)c1)[C@@H](O)C2 [catergen, (+)2-(3,4-dihydroxyphenyl)-3,5,7-chromanetriol, reference compound] | 77 ± 7 | 241.0 ± 23 | – |
